Target: T1, AXL kinase (Homo sapiens, UniProt P30530)
T1 construct: purchased Carna 08-107
T1 sequence (P30530 473-894 limits assumed): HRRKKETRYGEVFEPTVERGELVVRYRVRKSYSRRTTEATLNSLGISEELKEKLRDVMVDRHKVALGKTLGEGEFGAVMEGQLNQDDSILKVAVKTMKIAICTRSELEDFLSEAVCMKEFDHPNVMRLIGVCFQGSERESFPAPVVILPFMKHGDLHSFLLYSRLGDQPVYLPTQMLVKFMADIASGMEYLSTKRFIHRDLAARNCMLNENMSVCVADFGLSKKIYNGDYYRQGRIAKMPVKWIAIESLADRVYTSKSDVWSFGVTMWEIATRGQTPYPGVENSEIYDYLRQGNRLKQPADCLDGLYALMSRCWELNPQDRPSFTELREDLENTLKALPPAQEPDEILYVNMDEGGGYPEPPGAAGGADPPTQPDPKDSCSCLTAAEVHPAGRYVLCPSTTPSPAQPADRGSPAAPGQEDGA
Assay: Inhibitory activity of compound against AXL kinase (HTRF KinEASE)
Assay type: biochemical
Settings: AXL enzyme (Carna, 08-107), ATP 15 μM; "<" means below detection limit of the test
Experimental: a) AXL enzyme (Carna, 08-107) configuration and addition: a 1×enzyme buffer (200 μL of Enzymatic buffer kinase 5×, 10 μL of 500 mM MgCl2, 10 μL of 100 mM DTT and 6.26 μL of 2500 nM SEB are added with […] of H2O, and prepared into 1 ml of 1× enzyme buffer) is used. AXL enzyme is diluted from 33.33 ng/uL to 0.027 ng/μL (1.67×, final conc.=0.016 ng/uL), a BioTek (MultiFlo FX) automatic liquid dispenser is used, and 6 μL of enzyme solution having a 1.67-fold final concentration is added respectively to compound wells and positive control wells; and 6 μL of 1×Enzymatic buffer is added to negative control wells.
b) Compound preparation and addition: the compounds and positive drugs prepared in the examples are diluted from 10 mM to 100 μM by DMSO, and titrated with a compound titrator (Tecan, D300e). The titrated solution is automatically sprayed by the titrator to each well to reach a required concentration, wherein the first concentration is 1 μM, and after ½ log dilution, a total of 8 concentrations are obtained. The resulting mixture is centrifuged at 2500 rpm for 30 s and incubated at room temperature for 15 min.
c) Preparation and addition of ATP and substrate: ATP (Sigma, A7699) is diluted with 1× enzyme buffer from 10 mM to 75 μM (5×), and the final concentration is 15 μM; the substrate TK Substrate 3-biotin (Cisbio, 61TK0BLC) is diluted with 1× enzyme buffer from 500 μM to 5 μM (5×), andthe final concentration is […]; ATP and the substrate are mixed in equal volume to obtain a mixed solution; the mixed solution is added to each well at 4 μL by using a BioTek automatic dispenser; centrifuged at 2500 rpm for 30 s, and reacted at 25° C. for 45 min.
d) Pirparation and addition of detection reagent: Streptavidin-XL665 (Cisbio, 610SAXLG) is diluted with HTRF KinEASE detection buffer (cisbio) from 16.67 μM to 250 nM (4×), and the final concentration is 62.5 nM; TK Antibody-Cryptate (Cisbio) is diluted with HTRF KinEASE detection buffer (cisbio) from 100× to 5×, and the final concentration is 1×; XL665 and Antibody are mixed in equal volume; the mixed solution is added to each well at 10 μL by using the BioTek automatic dispenser, centrifuged at 2500 rpm for 30 s, and reacted at 25° C. for 1 h. After the reaction is completed, the resulting product is detected by a multi-function plate reader HTR1p
GraphPad Prism 5 software log (inhibitor) vs. response-Variable slope is used to fit a dose-response curve to obtain the IC50 value of the compound to the inhibition of AXL kinase.
The calculation formula of the inhibition rate is as follows: […]

| SMILES | IC50 |
| --- | --- |
| CN(C)S(=O)(=O)c1cccc(Nc2nc(Nc3ccc4c(c3)CC[C@@H](N3CCCC3)CC4)ncc2Cl)c1 [Example 2, (S)-3-((5-chloro-2-((7-(pyrrolidin-1-yl)-6,7,8,9-tetrahydro-5H-benzo[7]annulen-2-yl)amino)pyrimidin-4-yl)amino)-N,N-dimethyl benzenesulfonamide] | 13.4 nM |
| COc1cc(Nc2nc(Nc3ccc4c(c3)CC[C@@H](N3CCCC3)CC4)ncc2Cl)c(P(C)(C)=O)cc1F [Example 131, (S)-(2-((5-chloro-2-((7-(pyrrolidin-1-yl)-6,7,8,9-tetrahydro-5H-benzo[7]annulen-2-yl)amino)pyrimidin-4-yl)amino)-5-fluoro-4-methoxylphenyl)dimethyl phosphine oxide] | 207 nM |
| CP(C)(=O)c1cc(C2CC2)ccc1Nc1nc(Nc2ccc3c(c2)CC[C@@H](N2CCCC2)CC3)ncc1Cl [Example 112, (S)-(2-((5-chloro-2-((7-(pyrrolidin-1-yl)-6,7,8,9-tetrahydro-5H-benzo[7]annulen-2-yl)amino)pyrimidin-4-yl)amino)-5-cyclopropylphenyl)dimethyl phosphine oxide] | 2.41 nM |
| COc1ccc(Nc2nc(Nc3ccc4c(c3)CC[C@@H](N3CCCC3)CC4)ncc2Cl)c(P(C)(C)=O)c1 [Example 55, (S)-(2-((5-chloro-2-((7-(pyrrolidin-1-yl)-6,7,8,9-tetrahydro-5H-benzo[7]annulen-2-yl)amino)pyrimidin-4-yl)amino)-5-methoxyphenyl)dimethyl phosphine oxide] | 3.14 nM |
| CP(C)(=O)c1cc(C2(C#N)CC2)ccc1Nc1nc(Nc2ccc3c(c2)CC[C@@H](N2CCCC2)CC3)ncc1Cl [Example 140, (S)-1-(4-((5-chloro-2-((7-(pyrrolidin-1-yl)-6,7,8,9-tetrahydro-5H-benzo[7]annulen-2-yl)amino)pyrimidin-4-yl)amino)-3-(dimethylphosphoryl)phenyl)cyclopropane-1-carbonitrile] | 2.91 nM |
| Cc1cc(Cl)cc(Nc2nc(Nc3ccc4c(c3)CC[C@@H](N3CCCC3)CC4)ncc2Cl)c1P(C)(C)=O [Example 117, (S)-(4-chloro-2-((5-chloro-2-((7-(pyrrolidin-1-yl)-6,7,8,9-tetrahydro-5H-benzoannulen-2-yl)amino)pyrimidin-4-yl)amino)-6-methylphenyl)dimethyl phosphine oxide] | 1.78 nM |
| CNC(=O)c1cccnc1Nc1nc(Nc2ccc3c(c2)CC[C@@H](N2CCCC2)CC3)ncc1Cl [Example 21, (S)-2-((5-chloro-2-((7-(pyrrolidin-1-yl)-6,7,8,9-tetrahydro-5H-benzo[7]annulen-2-yl)amino)pyrimidin-4-yl)amino)-N-methylnicotinamide] | 6.53 nM |
| CNC(=O)c1cc(C(F)(F)F)ccc1Nc1nc(Nc2ccc3c(c2)CC[C@@H](N2CCCC2)CC3)ncc1Cl [Example 35, (S)-2-((5-chloro-2-((7-(pyrrolidin-1-yl)-6,7,8,9-tetrahydro-5H-benzo[7]annulen-2-yl)amino)pyrimidin-4-yl)amino)-N-methyl-5-(trifluoromethyl)benzamide] | 1.21 nM |
| Cc1cnc(-c2ccccc2Nc2nc(Nc3ccc4c(c3)CC[C@@H](N3CCCC3)CC4)ncc2Cl)o1 [Example 17, (S)-5-chloro-N^4-(2-(5-methyloxazol-2-yl)phenyl)-N^2-(7-(pyrrolidin-1-yl)-6,7,8,9-tetrahydro-5H-benzo[7]annulen-2-yl)pyrimidine-2,4-diamine] | 27.9 nM |
| COCc1ccc(Nc2nc(Nc3ccc4c(c3)CCC(N3CC5CC3C5)CC4)ncc2Cl)c(P(C)(C)=O)c1 (single isomer, unassigned) [Example 116 Isomer 116-2, (2-((2-((7-(2-azabicyclo[2.1.1]hexan-2-yl)-6,7,8,9-tetrahydro-5H-benzo[7]annulen-2-yl)amino)-5-chloropyrimidin-4-yl)amino)-5-(methoxymethyl)phenyl)dimethyl phosphine oxide] | 96.8 nM |

From patent US20230227484A1, “PYRIMIDINE COMPOUND AS AXL INHIBITOR” (NANJING CHIA TAI TIANQING PHARMACEUTICAL CO., LTD., priority 2020, published 2023)
